Entries after “also recorded” stand apart in the source; their conditions may differ.
Legend:
PPARγ2 mRNA = PPARγ2 mRNA induction by MDI in 3T3-L1 cells (RT-PCR); format: cell-based, murine; conditions: compound present at 1×10^−10 M
Protocol: RT-PCR was carried out as described above with 0.5 μM each primer, 2 mM MgCl2, and 1×SYBR Green master mix.

SCD-1 mRNA = test: Inhibition of SCD-1 mRNA induction in 3T3-L1 cells (RT-PCR); format: cell-based, murine; conditions: for inhibition of SCD-1 mRNA induction: result in words, MDI-treated 3T3-L1 cells
Description: Chomczynski, P. et al., Anal. […] NO: 4)).

3T3-L1 cells = test: Inhibition of 3T3-L1 differentiation into mature adipocytes (Oil-Red-O staining); format: cell-based, murine; conditions: for inhibition of differentiation of 3T3-L1 cells into mature adipocytes (Oil-Red-O staining): result in words, MDI-treated cells, staining at day 10
Protocol: Various 19-nor vitamin D analogs were or are tested and found to inhibit the differentiation of preadipocytes into mature adipocytes, to reduce body fat, to inhibit an increase in PPARγ, C/EBPα, and/or SCD-1 gene transcription and to be useful in treating and preventing obesity both in vivo and in vitro. The undifferentiated preadipocyte 3T3-L1 subline, a derivative of the original mouse fibroblast cell line, is one of the most accepted models for investigating the adipogenesis process and was used for the analysis. Two days after reaching confluence, 3T3-L1 cells can be induced to differentiate into adipocytes (see Mackall, J. C. et al. J. Biol. Chem., 251(20), 6462-6464 (1976)) with the addition of a cAMP phosphodiesterase inhibitor, dexamethasone (a glucocortoid), and insulin. […] The induction of PPARγ and C/EBPα is required for adipocyte differentiation. […] SCD-1 is an enzyme found in adipocytes that converts saturated fatty acids (C16 and C18) to their monounsaturated forms (C16:1 and C18:1). The deposition of triglyceride can also be detected as early as 3 days, and by the 7th to 14th days post-confluence, greater than 80% of the cells in the monolayer stain positively with Oil-red-O.

C/EBPα mRNA = C/EBPα mRNA induction by MDI in 3T3-L1 cells (RT-PCR); format: cell-based, murine; conditions: compound present at 1×10^−10 M
Protocol: Analysis of C/EBPα was determined by PCR using murine primers (upstream=CGA GTA GGG GGA GCA AAA A (SEQ ID NO: 7); downstream=GCA AAA AGC MG GGA TTA GGA G (SEQ ID NO: 8)). RT-PCR was carried out as described above with 0.5 μM each primer, 2 mM MgCl2, and 1×SYBR Green master mix. The murine C/EBPα primers have a 60° C. annealing temperature and a 12 second extension time.

[1] = Intestinal calcium transport (everted gut sac); format: in vivo; conditions: result in words, vitamin D deficient rat model, compared to 1α,25(OH)2D3
Protocol: (§1) Male, weanling Sprague-Dawley rats were placed on Diet 11 (0.47% Ca) diet+AEK for one week followed by Diet 11 (0.02% Ca)+AEK for 3 weeks. The rats were then switched to a diet containing 0.47% Ca for one week followed by two weeks on a diet containing 0.02% Ca. Dose administration began during the last week on 0.02% calcium diet. Four consecutive ip doses were given approximately 24 hours apart. Twenty-four hours after the last dose, blood was collected from the severed neck and the concentration of serum calcium determined as a measure of bone calcium mobilization. The first 10 cm of the intestine was also collected for intestinal calcium transport analysis using the everted gut sac method.

[2] = target: T1, full-length recombinant rat vitamin D receptor (Rattus norvegicus, UniProt P13053); test: Vitamin D receptor binding (competition with 3H-1,25(OH)2D3); conditions: for binding to the vitamin D receptor, compared to 1α,25(OH)2D3: result in words, competition for tritiated hormone binding
T1 construct: Full-length recombinant rat receptor was expressed in E. coli; histidine tag (C); made in house; host or cells: E. coli BL21(DE3) Codon Plus RIL
T1 sequence (P13053 1-423): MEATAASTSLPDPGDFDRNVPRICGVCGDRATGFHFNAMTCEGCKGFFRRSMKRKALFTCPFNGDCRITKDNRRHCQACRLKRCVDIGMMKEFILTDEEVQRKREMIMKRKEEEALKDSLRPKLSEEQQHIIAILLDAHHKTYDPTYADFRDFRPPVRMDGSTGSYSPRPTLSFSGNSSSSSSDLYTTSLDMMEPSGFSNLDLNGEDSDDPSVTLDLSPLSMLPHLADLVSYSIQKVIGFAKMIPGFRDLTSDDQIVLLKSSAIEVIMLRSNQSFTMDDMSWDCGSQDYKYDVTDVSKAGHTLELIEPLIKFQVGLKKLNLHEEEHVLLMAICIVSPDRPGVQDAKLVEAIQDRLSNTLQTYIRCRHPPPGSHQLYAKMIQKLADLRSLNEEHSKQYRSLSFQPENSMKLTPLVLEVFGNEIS
Protocol: Full-length recombinant rat receptor was expressed in E. coli BL21(DE3) Codon Plus RIL cells and purified to homogeneity using two different column chromatography systems. The first system was a nickel affinity resin that utilizes the C-terminal histidine tag on this protein. The protein that was eluted from this resin was further purified using ion exchange chromatography (S-Sepharose Fast Flow). Aliquots of the purified protein were quick frozen in liquid nitrogen and stored at −80° C. until use. For use in binding assays, the protein was diluted in TEDK50 (50 mM Tris, 1.5 mM EDTA, pH 7.4, 5 mM DTT, 150 mM KCl) with 0.1% Chaps detergent. The receptor protein and ligand concentration was optimized such that no more than 20% of the added radiolabeled ligand was bound to the receptor.
Unlabeled ligands were dissolved in ethanol and the concentrations determined using UV spectrophotometry (1,25(OH)2D3: molar extinction coefficient=18,200 and λmax=265 nm; Analogs: molar extinction coefficient=42,000 and λmax=252 nm). Radiolabeled ligand (^3H-1,25(OH)2D3, ˜159 Ci/mmole) was added in ethanol at a final concentration of 1 nM.
Radiolabeled and unlabeled ligands were added to 100 mcl of the diluted protein at a final ethanol concentration of ≦10%, mixed and incubated overnight on ice to reach binding equilibrium. The following day, 100 mcl of hydroxylapatite slurry (50%) was added to each tube and mixed at 10-minute intervals for 30 minutes. The hydroxylapaptite was collected by centrifugation and then washed three times with Tris-EDTA buffer (50 mM Tris, 1.5 mM EDTA, pH 7.4) containing 0.5% Titron X-100. After the final wash, the pellets were transferred to scintillation vials containing 4 ml of Biosafe II scintillation cocktail, mixed and placed in a scintillation counter. Total binding was determined from the tubes containing only radiolabeled ligand.

[3] = Bone calcium mobilization (serum calcium on low calcium diet); format: in vivo, rat; conditions: for bone calcium mobilization activity: result in words, vitamin D deficient rat model, compared to 1α,25(OH)2D3
Protocol: as §1

[4] = test system: 24-hydroxylase (24Ohase) gene promoter in ROS 17/2.8 (bone) cells; test: In vitro transcription assay (luciferase reporter); format: cell-based; conditions: for transcriptional activity in bone cells, compared to 1α,25(OH)2D3: result in words
Protocol: Transcription activity was measured in ROS 17/2.8 (bone) cells that were stably transfected with a 24-hydroxylase (24Ohase) gene promoter upstream of a luciferase reporter gene (Arbour et al., 1998). Cells were given a range of doses. Sixteen hours after dosing the cells were harvested and luciferase activities were measured using a luminometer. RLU=relative luciferase units.

[5] = test system: Human promyelocytic leukemia (HL60) cells; test: HL-60 differentiation (nitro blue tetrazolium reduction); format: cell-based
Protocol: The study drugs were dissolved in ethanol and the concentrations determined using UV spectrophotometry. Serial dilutions were prepared so that a range of drug concentrations could be tested without changing the final concentration of ethanol (≦0.2%) present in the cell cultures.
Human promyelocytic leukemia (HL60) cells were grown in RPMI-1640 medium containing 10% fetal bovine serum. The cells were incubated at 37° C. in the presence of 5% CO2.
HL60 cells were plated at 1.2×10^5 cells/ml. Eighteen hours after plating, cells in duplicate were treated with drug. Four days later, the cells were harvested and a nitro blue tetrazolium reduction assay was performed (Collins et al., 1979; J. Exp. Med. 149:969-974). The percentage of differentiated cells was determined by counting a total of 200 cells and recording the number that contained intracellular black-blue formazan deposits. Verification of differentiation to monocytic cells was determined by measuring phagocytic activity (data not shown).

[6] = test system: parathyroid hormone (PTH); test: PTH suppression (serum PTH); format: in vivo, rat; conditions: result in words; normal/adult rats
Protocol: Adult, female Sprague-Dawley rats were obtained from Harlan (Madison, Wis.).
Upon receipt, the animals were identified by individual tail marks. Animals were housed in suspended, stainless steel, wire-bottom cages. Each cage contained one animal. The animal rooms were maintained at a temperature of 68 to 72° F. and a relative humidity of 25 to 75%. The holding rooms were set to provide 12 hours of light per day. Water and a purified rodent diet (Suda et al., Purified Rodent Diet-Diet 11) containing […] 0.3% phosphorus and fat soluble vitamins A, D, E and K were provided ad libitum.
Animals were randomly assigned to treatment groups (5 animals/group). All doses were administered intraperitoneally in 100 microliters of propylene glycol. Four to seven consecutive doses were given approximately 24 hours apart. Dosing was initiated after the animals had been allowed to acclimate for at least one week.
Both control and test articles were administered by intraperitoneal injection in 100 microliters for 4-7 consecutive days spaced approximately 24 hours apart. 1,25(OH)2D3 was given for 4 consecutive days, whereas, the test drugs were given for 7 consecutive days.
Twenty-four hours after the final dose, blood was collected from the tail artery and the concentration of bioactive serum PTH was measured using the rat BioActive Intact PTH ELISA Kit from Immutopics, Inc. (San Clemente, Calif.).

[7] = Hypercalcemia / serum calcium analysis; format: in vivo, rat

| intestinal calcium transport activity [1] | binding to the vitamin D receptor, compared to 1α,25(OH)2D3 [2] | bone calcium mobilization activity [3] | Structure (SMILES) | inhibition of differentiation of 3T3-L1 cells into mature adipocytes (Oil-Red-O staining) (3T3-L1 cells) | transcriptional activity in bone cells, compared to 1α,25(OH)2D3 [4] | suppression of parathyroid hormone (PTH) [6] | differentiation of HL-60 cells, times less active than 1α,25(OH)2D3 [5] | further results |
| --- | --- | --- | --- | --- | --- | --- | --- | --- |
| active | as well as the native hormone | active | C=C1[C@H](O)CC(=C/C=C2\CCC[C@]3(C)[C@@H]([C@@H](C)CCCC(C)(C)O)CC[C@@H]23)C[C@H]1O [2-MD] | highest activity; also recorded: so much greater; also recorded: inhibit |  |  |  | PPARγ mRNA induction by MDI (PPARγ2 mRNA): prevented these mRNAs from being upregulated; also recorded: not induced; EC50 (SCD-1 mRNA; Mus musculus, 3T3-L1, 96 h, SCD-1 mRNA at 4 days, read-out: EC50 for inhibition of murine 3T3-L1 expression of SCD-1 mRNA): ~2.9 pM; times more potent than the native hormone calcitriol (SCD-1 mRNA; inhibition of 3T3-L1 differentiation (FIG. 2 and FIG. 3)): at least 70 times; C/EBPα mRNA induction by MDI (C/EBPα mRNA): prevented these mRNAs from being upregulated; also recorded: not induced |
| no calcemic activity |  | no calcemic activity | C=C1[C@H](O)CC(=C/C=C2\CCC[C@]3(C)[C@@H](CCC)CC[C@@H]23)C[C@H]1O [19,21-dinor, 2-methylene-19,21-dinor-1α-hydroxybishomopregnacalciferol] |  | active | significant activity | about 15 times | vitamin D receptor binding, times less active than 1α,25-dihydroxyvitamin D3 ([2]; less active than 1α,25-dihydroxyvitamin D3): about 5 times |
| does not support | approximately equally effective | does not support | C=C1[C@H](O)CC(=C/C=C2\CCC[C@]3(C)[C@@H]([C@H](C)CC)CC[C@@H]23)C[C@H]1O [(20R)2MbisP] | nearly equipotent |  | considerable activity | about 5 times | inhibition of SCD1 mRNA induction (SCD-1 mRNA; tested at 1×10^−8.5 M): active; inhibition of differentiation of MDI-treated 3T3-L1 cells (oil-red-O staining) (3T3-L1 cells; tested at 1×10^−8.5 M): active; transcription of reporter gene coupled to the CYP-24 promoter, times less active than 1α,25-(OH)2D3 ([4]; less active than 1α,25-(OH)2D3): about 5 times; intestinal calcium transport activity ([1]; listed as (20R)2-MbisP): less activity; hypercalcemia in adult rats ([7]; doses as high as 45 nmol/day): failed to cause hypercalcemia; bone calcium mobilization activity ([3]; listed as (20R)2-MbisP): very little bone calcium mobilization activity |

| Structure (SMILES) | intestinal calcium transport activity [1] | binding to the vitamin D receptor, compared to 1α,25(OH)2D3 [2] | bone calcium mobilization activity [3] | inhibition of differentiation of 3T3-L1 cells into mature adipocytes (Oil-Red-O staining) (3T3-L1 cells) | transcriptional activity in bone cells, compared to 1α,25(OH)2D3 [4] | suppression of parathyroid hormone (PTH) [6] | differentiation of HL-60 cells, times less active than 1α,25(OH)2D3 [5] | further results |
| --- | --- | --- | --- | --- | --- | --- | --- | --- |
| C=C1[C@H](O)CC(=C/C=C2\CCC[C@]3(C)[C@@H]([C@@H](C)CCC)CC[C@@H]23)C[C@H]1O [2MtrisP] | some ability to elevate intestinal calcium transport; also recorded: less activity | almost equal to the native hormone; also recorded: as or nearly effective as calcitriol | very little bone calcium mobilization activity | increased slightly | within one order of magnitude | remarkably effective |  | inhibition of SCD-1 mRNA induction (SCD-1 mRNA): increased slightly; inhibition of SCD-1 mRNA induction (SCD-1 mRNA; listed as (20S)2M-trisP): still possess activity; inhibition of differentiation of 3T3-L1 cells into mature adipocytes (Oil-Red-O staining) (3T3-L1 cells; listed as (20S)2M-trisP): still possess activity; differentiation of HL-60 cells, compared to 1α,25(OH)2D3 ([5]; result in words): equal in activity; serum calcium concentrations ([7]; adult rats, PTH suppression study): not raising serum calcium concentrations; bone calcium mobilizing activity ([3]; very high dose of 2340 pmol/day): little bone calcium mobilizing activity |

From US8188064B2, “Vitamin D analogs for obesity prevention and treatment” (Wisconsin Alumni Research Foundation, priority 2003, dated 2012)
